Our source for the melting point values is a melting point compilation (Tetko et al.; mined from patent text by program, amines drawn as free bases though some values may be those of a salt).

SMILES strings stand for the structures. A value given as a limit tells only on which side of the number the result lay.

With `CCOC(=O)N1CCN(C(c2ccccc2)c2ccccc2)CC1(C)Cc1ccc2c(c1)OCCO2` (stereo not drawn), the melting point lay within 153 to 155 °C.

Consider `NC1=NC(c2ccc(OC(F)(F)F)cc2)(c2cccc(-c3cccnc3F)c2)C2=NCCN12` (stereo not drawn), for which the melting point fell in the range of 95 to 100 °C.

Take `CS(=O)(=O)c1c(Cl)ccc(C(=O)O)c1Cl`: the melting point came to 158 °C.

On to `O=c1c(Cl)c(OCc2ccc(F)cc2F)ccn1Cc1ccc2[nH]ccc2c1`, for which the melting point was in the range of 152 to 153 °C.

`O=S(=O)(CCc1ccc(O)cc1)CC1CCC1` came in with a melting point of 112 °C.

Regarding `C=CCn1c(=O)c2c(nc(/C=C/c3ccc(O)c(OC)c3)n2C)n(CC=C)c1=O`, the melting point lay within 202 to 203 °C.

The compound `N#CC1=CCC23OCOC2=C1c1c(C#N)cccc1OCO3` (stereo not drawn) had a melting point of 213 to 215 °C.

Consider `CCNC(=O)Oc1ccc2cc(N3CC(COC)OC3=O)ccc2c1` (stereo not drawn), for which the melting point lay in the range of 126 to 128 °C.

`CC(=NNC(=O)c1cc([N+](=O)[O-])cc2ccccc12)c1ccncc1` displayed a melting point of 228 °C.

Regarding `CCOc1cc2c(O)c(C)cnc2nc1C`, the melting point was 238 to 242 °C.

The compound `COc1cc(C(=O)NS(=O)(=O)c2ccccc2)ccc1CN1CCOc2ccc(NC(=O)OC3CCCC3)cc21` yielded a melting point of 186 to 187 °C.

As to `CCCCCNC(=O)C(C)Cc1ccc2c(c1)c(Cc1ccc(C(=O)NS(=O)(=O)c3ccccc3C)cc1OC)cn2C` (stereo not drawn), the melting point lay in the range of 110 to 113 °C.

Compound `O=C(O)c1cc(=O)c(OCc2ccccc2)c(-c2ccccc2)o1` returned a melting point of 161 to 170 °C.

Compound `COc1cccc2c(N3CCNCC3)cc(C(F)(F)F)nc12` returned a melting point of 130 °C.

In turn, `COc1ccc(C2(C(=O)Oc3ccc(C(=O)NO)cc3)CCCC2)cc1` had a melting point of 143 to 144 °C.

The compound `Cc1cc(OCc2coc(/C=C/c3ccc(C(F)(F)F)cc3)n2)ccc1CS(=O)CCc1ccnn1C` (stereo not drawn) displayed a melting point of 161 to 162 °C.

Regarding `Cc1cn([C@H]2CC[C@@H]3CC(=O)N[C@H]2C3)c(=O)n(COCc2ccccc2)c1=O`, the melting point was 160 to 162 °C.

The compound `COc1cc(NS(C)(=O)=O)ccc1-c1nc2cc3c(cc2[nH]1)NC(=O)C3(C)C` had a melting point above 300 °C.

The compound `CC1(C)C(=O)NC(=O)c2cc3nc(-c4ccncc4)[nH]c3cc21` came in with a melting point of 218 to 221 °C.

With `CON1C=C2N=NC3=C(N2C1)N(C(C)C)CC=C3`, the melting point is 159 to 162 °C.

For the compound `O=C(Cc1cccc(Cl)c1)c1ccn(S(=O)(=O)c2ccccc2)c1`, the melting point lay in the range of 106 to 108 °C.

On to `CCOC(=O)c1cn(C2CC2)c2c(OC(F)F)c(Br)ccc2c1=O`, for which the melting point was determined as 253 °C.

Compound `N#Cc1cccc(C2=Nc3cc(O)c(-c4cc(F)ccc4F)cc3NC(=O)C2)c1` displayed a melting point above 250 °C.

The compound `N#Cc1cnc(N)nc1-c1ccccc1` yielded a melting point of 147 °C.

In the case of `COC(=O)c1cc(-c2ccc(Cl)cc2)n(-c2ccc(S(N)(=O)=O)cc2)n1`, the melting point was determined as 186 °C.

Consider `C=Cc1ccc2nc(-c3ccccc3)c(-c3ccccc3)nc2c1`, for which the melting point was 122 to 123 °C.

`CCc1c(-c2ccc(OC)cc2)cn2ccc(OC)cc12` registered a melting point of 101 to 103 °C.

The compound `O=C(Cc1cccc([N+](=O)[O-])c1)c1c(O)c2cccnc2n(-c2ccccc2)c1=O` came in with a melting point of 157 to 161 °C.

`CCn1c(=O)c2c(nc(/C=C/c3ccc(OC(=O)c4ccccc4)c(OC)c3)n2C)n(CC)c1=O` displayed a melting point of 234 to 236 °C.

Compound `COc1cc2c(c3c1OC(C)(C)C3)C(c1cccc(-c3ccc(NC=O)cc3)c1)=NC(C)(C)C2` yielded a melting point of 129 to 133 °C.

As to `CCCc1c(/C=C/c2ccccc2C)nc2ccc(C(=O)O)cn2c1=O`, the melting point was 190 to 191 °C.

`O=C(O)c1ccc(CCCC2SCC(=O)N2CCC2(O)CCCCCC2)cc1` (stereo not drawn) returned a melting point of 146 to 148 °C.

`COc1ccc(-c2ccc3ccc(NC(=O)c4ccc(C(F)(F)F)cc4)nc3n2)cc1` displayed a melting point of 148 °C.

As usually defined, the melting point is the temperature, or range, at which the solid turns liquid.
